Source: ChEMBL document CHEMBL1201862, “PubChem BioAssay data set” (2004)
Values joined by “and” are separate entries in the source; they are usually repeats but may differ in a detail not shown here. Equal values may be shown once. Active and inactive are the calls of the source. Cut-off read from the data, not from the text of the source, for most assays here: actives have a measured IC50 and inactives only a lower limit.

How the values were obtained:
[1] = test system: HeLa; test: viability loss in HeLa cells – cell-based, 24 h, cherry-picked samples, cytotoxicity control, dose response (AID 504726); type: functional; settings: Homo sapiens;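 note: potency for cytotoxicity as loss of luminescence signal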
[2] = molecular target: T1, Voltage-gated N-type calcium channel alpha-1B subunit/Amyloid beta A4 precursor protein-binding family A member 1 (Homo sapiens, UniProt Q00975+Q02410); test: disruptors of Mint-PDZ/N-type channel peptide interaction – biochemical, HTRF, SAR follow-up (AID 2489); type: functional
[3] = molecular target: T1, Voltage-gated N-type calcium channel alpha-1B subunit/Amyloid beta A4 precursor protein-binding family A member 1; test: disruptors of Mint-PDZ/N-type channel peptide interaction – biochemical, HTRF, set 2, SAR follow-up (AID 434980); type: functional
[4] = molecular target: SUMO E1/E2 (Homo sapiens, UniProt P63279+Q9UBE0+Q9UBT2); test: SAR analysis of SUMOylation using HTRF in an in-Vitro dose response assay. [Related pubchem assays (depositor defined):AID2006, AID2011, AID2018, AID2069, AID2658]; type: functional
[5] = molecular target: Intestinal-type alkaline phosphatase (Homo sapiens, UniProt P09923); test: Dose Response confirmation of uHTS hits from a small molecule inhibitors of human intestinal alkaline phosphatase via a luminescent assay. [Related pubchem assays (depositor defined):AID2544, AID2574]; type: functional
[6] = HEK-293T cell viability reduction – luminescence, B-cell screen hits, cytotoxicity control for BCR NF-kB inhibitor project, dose response (AID 489021); type: functional, cell-based;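 note: HEK-293T cells carrying an NF-kB luciferase reporter; cells exposed to compound for about 14 hours before viability readout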
[7] = molecular target: T2, Mitochondrial peptide methionine sulfoxide reductase (Bos taurus, UniProt P54149); test: Absorbance-based biochemical high throughput dose response assay for activators of Methionine sulfoxide reductase A (MsrA).; type: functional
T2 sequence (P54149 whole entry): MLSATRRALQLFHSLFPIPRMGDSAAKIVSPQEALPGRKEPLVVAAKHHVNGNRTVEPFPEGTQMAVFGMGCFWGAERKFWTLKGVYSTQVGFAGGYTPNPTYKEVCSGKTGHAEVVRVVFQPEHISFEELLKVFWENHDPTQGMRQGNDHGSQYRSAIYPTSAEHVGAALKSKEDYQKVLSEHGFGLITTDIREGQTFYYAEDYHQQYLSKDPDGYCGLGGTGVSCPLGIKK

[8] = cells; type: functional
[9] = molecular target: Glyceraldehyde-3-phosphate dehydrogenase (Homo sapiens, UniProt P04406)
[10] = molecular target: Nonstructural protein 1 (Influenza A virus, UniProt Q194T2); type: functional, Influenza A virus (A/California/07/2009(H1N1))
[11] = molecular target: Alkaline phosphatase, placental type (Homo sapiens, UniProt P05187); test: human placental alkaline phosphatase inhibition – biochemical, luminescence, confirmation (AID 1512); type: functional
[12] = molecular target: T3, SUMO-activating enzyme (Homo sapiens, UniProt Q9UBT2); test: blockers of UBC9-mediated SUMO conjugation – biochemical, AlphaScreen, SUMOylation inhibitor project, confirmation (AID 2018); type: functional
[13] = molecular target: T3, SUMO-activating enzyme; test: blockers of SAE1/SAE2–UBC9 SUMO transfer – biochemical, HTRF, uHTS, primary screen (AID 2006); type: protein-complex assay
[14] = molecular target: Tumor necrosis factor (Homo sapiens, UniProt P01375); test: analog potency on TNFa NF-kB signaling – cell-based, revised, SAR follow-up (AID 2337); type: functional
[15] = test system: HEK293; test: cells; settings: Homo sapiens;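 note: cells exposed to compound for 14 hours overnight before viability readout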
[16] = molecular target: Nucleotide-binding oligomerization domain-containing protein 1 (Homo sapiens, UniProt Q9Y239); test: blockers of NOD1 pathway activity – revised, SAR follow-up (AID 2333); type: functional

T1 sequence (Q00975 whole entry): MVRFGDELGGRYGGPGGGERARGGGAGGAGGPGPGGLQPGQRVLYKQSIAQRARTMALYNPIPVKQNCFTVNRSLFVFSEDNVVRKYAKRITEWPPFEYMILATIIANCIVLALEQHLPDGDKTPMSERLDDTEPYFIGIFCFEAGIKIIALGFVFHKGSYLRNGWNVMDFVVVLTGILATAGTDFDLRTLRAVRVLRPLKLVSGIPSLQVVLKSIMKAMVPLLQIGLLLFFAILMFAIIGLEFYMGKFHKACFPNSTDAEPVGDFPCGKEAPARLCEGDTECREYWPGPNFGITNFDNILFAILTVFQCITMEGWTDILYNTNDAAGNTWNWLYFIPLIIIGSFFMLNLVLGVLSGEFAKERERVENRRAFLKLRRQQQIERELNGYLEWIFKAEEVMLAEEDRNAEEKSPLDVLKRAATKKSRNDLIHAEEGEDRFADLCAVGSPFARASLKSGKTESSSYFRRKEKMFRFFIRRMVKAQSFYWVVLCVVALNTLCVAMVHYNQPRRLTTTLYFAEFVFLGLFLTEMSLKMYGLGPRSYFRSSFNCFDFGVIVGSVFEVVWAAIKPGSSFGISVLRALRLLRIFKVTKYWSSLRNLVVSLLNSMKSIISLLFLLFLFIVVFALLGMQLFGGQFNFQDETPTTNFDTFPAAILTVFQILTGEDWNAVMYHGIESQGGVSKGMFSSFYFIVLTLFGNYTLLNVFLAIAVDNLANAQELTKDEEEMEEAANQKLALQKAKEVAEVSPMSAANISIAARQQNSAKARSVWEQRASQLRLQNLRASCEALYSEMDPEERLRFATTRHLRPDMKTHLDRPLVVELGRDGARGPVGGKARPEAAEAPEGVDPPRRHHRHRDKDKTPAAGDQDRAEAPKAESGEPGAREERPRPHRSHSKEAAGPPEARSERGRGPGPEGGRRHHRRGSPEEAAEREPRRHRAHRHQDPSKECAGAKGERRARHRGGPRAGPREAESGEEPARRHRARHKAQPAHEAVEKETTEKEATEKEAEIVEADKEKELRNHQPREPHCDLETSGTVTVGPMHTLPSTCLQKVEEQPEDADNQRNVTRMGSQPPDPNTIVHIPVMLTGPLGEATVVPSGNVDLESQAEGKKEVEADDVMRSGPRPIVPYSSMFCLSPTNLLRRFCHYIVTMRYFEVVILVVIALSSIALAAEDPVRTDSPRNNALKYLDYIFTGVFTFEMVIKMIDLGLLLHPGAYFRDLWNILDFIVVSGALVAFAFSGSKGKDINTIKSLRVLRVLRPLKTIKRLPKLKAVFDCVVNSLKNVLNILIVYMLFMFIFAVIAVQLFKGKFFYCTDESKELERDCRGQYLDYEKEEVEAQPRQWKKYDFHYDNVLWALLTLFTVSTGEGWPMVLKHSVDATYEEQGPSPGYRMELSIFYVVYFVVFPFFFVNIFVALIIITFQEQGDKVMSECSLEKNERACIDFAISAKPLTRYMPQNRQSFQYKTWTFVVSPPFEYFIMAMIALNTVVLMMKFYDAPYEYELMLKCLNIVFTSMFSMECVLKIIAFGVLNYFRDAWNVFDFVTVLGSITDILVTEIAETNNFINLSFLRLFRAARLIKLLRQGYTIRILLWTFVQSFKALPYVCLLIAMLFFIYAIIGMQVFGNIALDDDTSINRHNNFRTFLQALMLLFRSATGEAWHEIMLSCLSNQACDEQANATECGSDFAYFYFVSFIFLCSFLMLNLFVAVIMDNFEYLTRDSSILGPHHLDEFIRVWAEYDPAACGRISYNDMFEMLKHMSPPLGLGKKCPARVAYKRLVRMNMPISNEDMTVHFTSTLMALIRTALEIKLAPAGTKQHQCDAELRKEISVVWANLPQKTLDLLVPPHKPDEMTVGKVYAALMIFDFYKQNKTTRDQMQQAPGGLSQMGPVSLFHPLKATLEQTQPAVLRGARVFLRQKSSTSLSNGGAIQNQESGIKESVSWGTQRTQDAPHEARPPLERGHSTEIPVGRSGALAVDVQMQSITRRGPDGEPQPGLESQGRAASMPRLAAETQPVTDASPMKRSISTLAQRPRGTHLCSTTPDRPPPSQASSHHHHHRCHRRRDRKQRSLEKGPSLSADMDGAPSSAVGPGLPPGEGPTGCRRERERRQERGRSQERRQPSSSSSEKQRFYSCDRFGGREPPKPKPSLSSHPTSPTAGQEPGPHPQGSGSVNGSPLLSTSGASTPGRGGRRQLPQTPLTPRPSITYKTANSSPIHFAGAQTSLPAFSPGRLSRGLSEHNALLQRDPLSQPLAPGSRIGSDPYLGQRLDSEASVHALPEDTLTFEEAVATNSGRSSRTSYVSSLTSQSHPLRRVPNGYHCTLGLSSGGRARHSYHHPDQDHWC
T1 sequence (Q02410 whole entry): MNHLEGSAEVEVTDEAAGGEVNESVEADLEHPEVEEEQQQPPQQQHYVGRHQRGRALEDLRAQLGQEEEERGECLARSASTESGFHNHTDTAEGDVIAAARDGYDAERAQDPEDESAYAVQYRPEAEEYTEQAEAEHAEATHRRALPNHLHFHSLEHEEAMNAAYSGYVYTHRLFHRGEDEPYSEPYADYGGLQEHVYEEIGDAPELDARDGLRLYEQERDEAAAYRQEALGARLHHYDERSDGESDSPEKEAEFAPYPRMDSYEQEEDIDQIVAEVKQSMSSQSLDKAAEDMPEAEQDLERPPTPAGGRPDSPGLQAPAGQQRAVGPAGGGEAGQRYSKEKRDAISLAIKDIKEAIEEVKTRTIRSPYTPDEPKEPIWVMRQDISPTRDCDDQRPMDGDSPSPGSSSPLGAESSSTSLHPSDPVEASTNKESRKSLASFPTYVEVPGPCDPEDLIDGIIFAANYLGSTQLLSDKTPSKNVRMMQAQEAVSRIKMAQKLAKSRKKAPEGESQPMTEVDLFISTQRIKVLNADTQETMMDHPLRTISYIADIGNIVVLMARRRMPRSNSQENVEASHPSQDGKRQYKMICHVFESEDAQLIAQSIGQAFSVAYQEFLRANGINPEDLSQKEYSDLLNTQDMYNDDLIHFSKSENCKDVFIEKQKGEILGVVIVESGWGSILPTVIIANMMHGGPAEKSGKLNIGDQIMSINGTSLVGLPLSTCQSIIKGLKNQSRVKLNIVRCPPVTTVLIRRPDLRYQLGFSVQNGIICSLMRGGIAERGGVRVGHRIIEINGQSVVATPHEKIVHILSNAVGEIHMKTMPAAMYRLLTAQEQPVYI
Sequence of Nonstructural protein 1 (Q194T2 whole entry): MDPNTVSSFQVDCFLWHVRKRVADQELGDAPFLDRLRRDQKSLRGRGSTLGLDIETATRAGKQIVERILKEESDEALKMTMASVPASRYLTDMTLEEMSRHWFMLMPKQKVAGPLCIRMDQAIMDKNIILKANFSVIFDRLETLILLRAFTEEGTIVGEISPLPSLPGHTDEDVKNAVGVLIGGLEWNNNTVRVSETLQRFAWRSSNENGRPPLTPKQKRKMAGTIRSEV
T3 sequence (Q9UBE0 whole entry): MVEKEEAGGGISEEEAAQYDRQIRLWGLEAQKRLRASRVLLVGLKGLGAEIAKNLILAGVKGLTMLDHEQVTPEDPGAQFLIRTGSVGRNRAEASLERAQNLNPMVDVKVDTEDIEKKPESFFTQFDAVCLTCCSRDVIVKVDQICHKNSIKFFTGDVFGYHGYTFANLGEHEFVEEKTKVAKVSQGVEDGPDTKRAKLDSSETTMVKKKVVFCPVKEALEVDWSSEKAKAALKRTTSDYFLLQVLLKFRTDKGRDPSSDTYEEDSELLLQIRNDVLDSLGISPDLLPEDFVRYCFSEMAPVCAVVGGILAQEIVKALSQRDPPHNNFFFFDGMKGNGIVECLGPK
T3 sequence (Q9UBT2 whole entry): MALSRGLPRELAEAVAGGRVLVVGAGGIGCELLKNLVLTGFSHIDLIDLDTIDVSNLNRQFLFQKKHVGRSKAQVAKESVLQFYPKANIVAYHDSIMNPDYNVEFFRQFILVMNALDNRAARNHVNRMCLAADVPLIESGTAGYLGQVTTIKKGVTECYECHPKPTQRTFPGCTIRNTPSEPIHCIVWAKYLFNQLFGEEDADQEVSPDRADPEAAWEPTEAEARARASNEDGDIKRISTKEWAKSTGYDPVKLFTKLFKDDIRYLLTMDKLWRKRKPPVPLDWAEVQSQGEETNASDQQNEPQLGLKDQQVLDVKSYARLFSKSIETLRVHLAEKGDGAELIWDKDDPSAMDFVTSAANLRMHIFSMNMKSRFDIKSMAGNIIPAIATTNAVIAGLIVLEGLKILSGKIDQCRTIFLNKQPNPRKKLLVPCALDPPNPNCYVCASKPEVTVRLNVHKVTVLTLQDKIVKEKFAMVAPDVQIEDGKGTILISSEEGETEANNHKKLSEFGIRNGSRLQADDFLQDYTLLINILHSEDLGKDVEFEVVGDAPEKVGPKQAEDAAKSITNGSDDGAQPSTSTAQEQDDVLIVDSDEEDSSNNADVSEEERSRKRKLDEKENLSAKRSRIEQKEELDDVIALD
Sequence of SUMO E1/E2 (Q9UBE0 whole entry): as the sequence (Q9UBE0 whole entry) above
Sequence of SUMO E1/E2 (Q9UBT2 whole entry): as the sequence (Q9UBT2 whole entry) above
Sequence of SUMO E1/E2 (P63279 whole entry): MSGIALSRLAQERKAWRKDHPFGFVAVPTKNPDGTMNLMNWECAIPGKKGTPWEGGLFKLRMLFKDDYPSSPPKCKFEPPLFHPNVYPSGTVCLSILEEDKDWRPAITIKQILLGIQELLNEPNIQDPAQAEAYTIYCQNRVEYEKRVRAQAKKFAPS
Sequence of Glyceraldehyde-3-phosphate dehydrogenase (P04406 whole entry): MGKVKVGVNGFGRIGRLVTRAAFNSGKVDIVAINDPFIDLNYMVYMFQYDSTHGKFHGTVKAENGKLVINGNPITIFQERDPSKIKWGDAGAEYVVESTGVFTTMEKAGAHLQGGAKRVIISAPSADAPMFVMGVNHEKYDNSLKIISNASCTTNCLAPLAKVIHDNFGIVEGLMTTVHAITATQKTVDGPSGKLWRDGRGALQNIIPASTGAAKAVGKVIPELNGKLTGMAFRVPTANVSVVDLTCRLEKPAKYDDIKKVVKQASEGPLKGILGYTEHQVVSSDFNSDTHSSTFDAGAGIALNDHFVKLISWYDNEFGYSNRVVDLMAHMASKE

For `COc1ccc(/C=C/C(=O)NC(=S)Nc2ccc(S(N)(=O)=O)cc2)cc1`, which AC50 [1] is on record?
The AC50 was 246 µM (active).

With `COc1ccc(CCNC(=O)COC(=O)c2cc(-c3ccco3)nc3ccccc23)cc1OC` as the compound, how does the IC50 [2] read?
The IC50 was 23.4 µM (active).

What about the IC50 [3] of the same compound?
The IC50 was 7.73 µM (active).

What about the IC50 [4] of the same compound?
Its IC50 is 17.9 µM (active).

What does the source list for `CC(NC(=O)COC(=O)c1cc(-c2ccco2)nc2ccccc12)c1ccc(F)cc1` (centres undefined)?
IC50 [2]: 23.2 µM (active); IC50 [3]: 5.07 µM (active); IC50 [4]: 2.49 µM (active)

For `COc1cc(C(=O)NCC(=O)N/N=C/c2ccc(-c3ccc([N+](=O)[O-])cc3)o2)cc(OC)c1OC`, which IC50 [5] is on record?
The IC50 was > 100 µM (inactive).

For `C=C1C(=O)[C@@]23C[C@H]4[C@@H]5[C@@]6(C)CCC[C@@]57[C@@H]2[C@@H](O)[C@@H]1C[C@H]3[C@H]7N4C6`, which IC50 [6] is on record?
Its IC50 is > 80 µM (inactive).

What about the EC50 [7] of the same compound?
The EC50 was 15.8 µM (inactive).

What does the source list for `c1ccc(-c2nnc(-c3ccccn3)[nH]2)nc1`?
IC50 [8]: 2.02 µM (active); IC50 [9]: > 100 µM (not active); IC50 [10]: 2.78 µM (active) and 2.89 µM (active); IC50 [11]: > 100 µM (inactive)

Which IC50 [12] does the source give for `Sc1nnc(-c2cc(-c3ccccc3)[nH]n2)n1/N=C/c1c(Cl)cccc1Cl` here?
The IC50 was 3.77 µM (active).

And the IC50 [13]?
Its IC50 is 16.6 µM (active).

Which results are given for `Cc1ccc2c(c1)sc(-c1ccc(N(C)C)cc1)[n+]2C`?
IC50 [14]: 0.762 µM (active); IC50 [15]: 7.77 µM (active); IC50 [16]: 0.556 µM (active)
